Reference: US20220273590A1, “COMPOUNDS FOR PREVENTION AND TREATMENT OF POST-OPERATIVE COGNITIVE DYSFUNCTION” (ABREXA PHARMACEUTICALS, INC., priority 2019, published 2022)

Assays:
[1] = test system: animal model of POCD; test: Morris Water Maze (MWM) after abdominal surgery; assay type: in vivo, Wistar rats; settings: chronically treated rats
Method: (§1) Male Wistar rats (˜350 g) were randomly divided into 4 experimental groups; non-surgery; control abdominal surgery; surgery+acute J147 treatment (7 mg/rat by gavage, 4-5 hours before surgery); surgery+chronic J147 (500 mg/kg food, 1 week before surgery until the end of the study). Timed blood samples were collected. Days 9-11 post surgery, general behavior (Open field: OF) and cognitive performance (Novel Object/Novel Location Recognition: NOR/NLR; Morris Water Maze: MWM) were tested. Day 14, rats were sacrificed and blood and brain tissue were collected for further analyses. (Neuro)inflammation was examined by circulating cytokine levels and microglia activation in the brain.
Abdominal surgery was performed as described previously by Hovens et al., 2014. Rats were anaesthetized using sevoflurane (±2.5% in air/O2=2/1) and received 0.01 mg/kg buprenorphine s.c. A heating blanket was used to preserve body temperature. An incision was made along the linea alba and the intestines were exteriorised. […]
The second day started with a probe trial to assess early spatial memory. […] We measured how often the rat crossed the place of the platform and how much time he spent in the target quadrant. […]

[2] = test system: animal model of POCD; test: Overall outcome in the animal model of POCD (abdominal surgery); assay type: in vivo, Wistar rats
Method: as §1, with “In this study, the effects of J147 in an animal model of POCD were investigated. Male” for “Male”, “brain. Within each cohort rats (n=12 per cohort) were equally divided over four experimental groups, including non-surgery, control surgery, surgery+acute J147 and surgery+chronic J147. Half of the non-surgery and control surgery groups received vehicle gavage and served as control for acute treatment. One week before surgery, chronic treatment J147 treatment started and continued until the end of the experiment. […] The first week post-surgery, rats were weighed daily and food intake was measured. […]” for “brain.”

COc1cccc(/C=N/N(C(=O)C(F)(F)F)c2ccc(C)cc2C)c1 [J147]
spatial and reversal learning (MWM), effect of treatment [1]: not affected
spatial memory in the MWM [1]: significantly improved spatial memory
impaired cognitive aspects after surgery ([2]; chronic J147 administration): capable of preventing all impaired cognitive aspects after surgery
conditions after surgery (body weight loss, behavior in the OF) ([2]; chronic treatment): generally improved conditions after surgery
